Measurements from ChEMBL document CHEMBL1156392, “New sesquiterpene derivatives from the red alga Laurencia scoparia. Isolation, structure determination, and anthelmintic activity” (J Nat Prod, 2001).

system: Nippostrongylus brasiliensis; assay: Anthelmintic activity against Nippostrongylus brasiliensis; type: functional, organism-based; details: not given

**Q.** For `CC1=CC(=O)CC(C)(C)[C@@]12C=CC(=O)CC2`, which Activity is on record?
**A.** <100 µM

**Q.** For `C=C1C[C@@H](O)[C@@H](Br)C(C)(C)[C@@]12C=CC(=O)CC2`, which Activity is on record?
**A.** <100 µM

**Q.** With `C=C1C[C@@H](O)[C@H](Br)C(C)(C)[C@]12CC=C(C)CC2` as the molecule, how does the Activity read?
**A.** <100 µM

**Q.** `C=C1C[C@H](O)[C@@H](Br)C(C)(C)[C@@]12C=C[C@](C)(O)CC2` [ISORIGIDOL] was tested. Which Activity did it give?
**A.** <100 µM

**Q.** `CCCCCCCCCCCCCC/C=C(/C=O)CCCCCCCCCCCCC` was tested. Which Activity did it give?
**A.** <100 µM

**Q.** `C=C1CC[C@@H](Br)C(C)(C)[C@]12CC[C@](C)(Br)[C@@H](Cl)C2` was tested. Which Activity did it give?
**A.** <100 µM

**Q.** Which Activity does the source give for `C=C1C[C@@H](O)[C@@H](Br)C(C)(C)[C@@]12C=C/C(=C/Br)CC2` here?
**A.** <100 µM

**Q.** How did the Activity turn out when `C=C1C[C@@H](O)[C@@H](Br)C(C)(C)[C@@]12C=C/C(=C\Br)CC2` was run?
**A.** <100 µM

same assay, conditions: Nippostrongylus brasiliensis

**Q.** How did the EC50 turn out when `COC(=O)Nc1nc2cc(Sc3ccccc3)ccc2[nH]1` [FENBENDAZOLE] was run?
**A.** 120 nM

**Q.** How did the EC50 turn out when `c1ccc([C@H]2CN3CCSC3=N2)cc1` [LEVAMISOLE] was run?
**A.** 210 nM

**Q.** Which EC50 does the source give for `CCCSc1ccc2[nH]c(NC(=O)OC)nc2c1` [ALBENDAZOLE] here?
**A.** 340 nM
